{
  "source": "patent US10443089B2",
  "about": "“Methods of multiplexing DNA sensors and localizing DNA sensor” (NATIONAL CENTRE FOR BIOLOGICAL SCIENCES (NCBS-TIFR), priority 2013, dated 2019)",
  "molecules": {"B1": {"name": "clone C1: scFv recombinant antibody from phage display binding dsDNA sequence d(AT)4; SEQ ID No. 16 (protein)", "scFv": "MAEVQLLESGGGLVQPGGSLRLSCAASGFTFSSYAMSWVRQAPGKGLEWVSTITKRGERTKYADSVKGRFTISRDNSKNTLYLQMNSLRAEDTAVYYCAKSTRAFDYWGQGTLVTVSSGGGGSGGGGSGGGGSTDIQMTQSPSSLSASVGDRVTITCRASQSISSYLNWYQQKPGKAPKLLIYGASYLQSGVPSRFSGSGSGTDFTLTISSLQPEDFATYYCQQTRFSPNTFGQGTKVEIKRAAAHHHHHHGAAEQKPISEEDLNGAAGGD", "modifications": "scFv Protein Sequence; DNA_BIND (1)..(271)"}},
  "key": {"[1]": {"system": "scFv-furin expressing IA2.2 cells", "assay": "SimpHony of early endosomes and TGN with and without Brefeldin A", "type": "cell-based, Chinese Hamster", "conditions": "BFA 20 μg/mL, 10 min", "source_text": "SimpHony is applied on BFA-induced tubules positive for furin marked by I^FuA546/A647 while simultaneously marking transferrin containing endosomes with Tf-I^TfA488/A647. BFA treated cells show tubular extensions emerging from compartments localize near the MTOC (FIG. 18a). Tf-I^TfA488/A647 in these cells occupies the excluded space of I^FuA546/A647 in the region around the MTOC in addition to a few cytoplasmic endosomes (FIG. 19b).\nFIG. 19 depicts localization of Tf-I^Tf and I^Fu DNA sensors in compartments after BFA treatment. scFv-Furin expressing IA2.2 cells are pulsed with about 500 nM I^FuA546/647 for 2 hours and chased for 30 min in presence of CHX followed by absence (a) or presence (b) of BFA (about 20 μg/mL) treatment of about 10 min at about 37° C. Cells are pulsed with about 500 nM Tf-I^TfA488/A647 in presence of BFA and CHX to label early endosomes. Arrowheads show MTOC. Scale Bar: 10 μm.\nFIG. 22 describes the pH heterogeneity of early endosomes and TGN, pre and post treatment with BFA. IA2.2 cells are pulsed with about 500 nM IFuA546/A647 for about 2 hours and chased for 30 min in presence of about 125 ug/ml CHX followed by absence or presence of BFA (about 20 μg/mL) treatment of about 10 min at about 37° C. Cells are further treated with about 500 nM Tf-ITfA488/A647 in presence of about 20 μg/mL BFA and about 125 ug/ml CHX to label early endosomes."}, "[2]": {"system": "IA2.2 cells expressing scFv-furin", "assay": "SimpHony of early and late endosomes with and without Dynasore", "type": "cell-based, Chinese Hamster", "procedure": "The DNA sensor of the present disclosure is applied to this system, by marking early endosomes with about 500 nM Tf-I^TfA488/A647 and late endosomes with about 500 nM I^FuA546/A647 in the presence and absence of Dynasore. I^n the absence of Dynasore, early endosomes undergo active fusion and fission; showing an average pH of about 6.05±0.07 (FIG. 17) while the late endosomes show an average pH of about 5.43±0.3.\nFIG. 17 depicts Dynasore mediated arrest of endosomal fission. Early/sorting and late endosomes in IA2.2 cells expressing scFv-furin are marked with about 500 nM Tf-I^TfA488/A647 at 37° C. for 10 min. Time lapse images of control cells (−Dy) where no dynasore is added, (+Dy) in presence of about 160 μM dynasore and (W) after dynasore is washed out and incubated for about 10 min at about 37° C. for recovery. Images are acquired with a time interval of about 2 s over 2 min period and compressed to a movie playing at 7 fps."}, "[3]": {"assay": "Comparison of DNA pH sensors with pH sensitive organic dyes and GFP based probes", "conditions": "for Working regime: pH"}, "35 bp dsDNA tag, d(AT)4": {"system": "35 bp dsDNA tag, d(AT)4", "assay": "Competitive ELISA, binding affinity of purified scFv to immobilized dsDNA", "procedure": "The binding affinity of this scFv with the 35 bp DNA duplex is assayed using competitive ELISA that is performed using a fixed amount of immobilized dsDNA (25 pmoles) followed by the addition of a fixed concentration of scFv (200 nM) in the presence of an increasing concentration of unlabeled dsDNA (I^comp, about 10 nM to about 1 μM) in solution.\nThis experiment is carried out to find strength of binding of clone C1 with DNA. The affinity and specificity of scFv is analyzed by ELISA after purifying the scFv. Streptavidin-coated 96-well plate is incubated with dsDNA epitope used for screening in 5×SSCT (about 75 mM Sodium citrate, about 750 mM NaCl, about 0.05% Tween-20) for about 1.5 hours for immobilization of dsDNA onto the Streptavidin-coated 96-well plate.\nFor competition experiments, dsDNA immobilized onto Streptavidin-coated 96-well plate is incubated with the mixture of increasing amount of (from 0 to 10 micromoles) of competing nucleic acid, purified scFv (about 200-300 nM) and 1 in 1000 dilution of anti myc-tag antibody for about 1.5 hours at room temperature. […] Bound scFvs are detected by addition of 100 microliters of 2×TMB/H202 and OD at 450 nm is recorded and normalized with respect to the well where no competitor is added. […]"}, "[4]": {"system": "DNA epitopes ssDNA, dsDNA, R1, R2, RM", "assay": "ELISA screen of scFv clones for sequence specific binding to DNA epitopes", "conditions": "epitopes R1, R2, RM of the 35 bp dsDNA; listed as C1", "procedure": "The 35 bp dsDNA is divided into three regions: • (i) One region is composed of 13 bp of the antigen from the 3′ end (known as Region 1 (R1), FIG. 6a, red), • (ii) the second region corresponds to base pairs 16 to 28 from 3′ end (Region 2 (R2), FIG. 6a, green) and • (iii) the third region is an overlap of regions 1 and 2 (Region M (RM), FIG. 6a, blue).\nThese three duplexes are annealed and then immobilized on three different 96-well plates. scFv supernatant of the same clones is added to the wells and incubated as described earlier. […] Thus, the scFvs corresponding to these clones recognize only the first 8 base pairs of the 35 bp dsDNA i.e., the sequence d(AT)4.\nIn order to screen for sequence specificity of binding to duplex DNA, each of the selected clones are similarly assayed by ELISA to a set of surface-immobilized DNA scaffolds. These correspond to a single stranded DNA sequence comprising only the biotinylated strand of the 35 bp dsDNA the 35 bp dsDNA duplex (dsDNA), and three shorter duplex regions R1, R2 and RM corresponding to various sections on the 35 bp dsDNA duplex. R1 corresponds to a […] region at the 3′ terminus of the biotinylated ssDNA oligonucleotide, R2 correspond to a 13 bp region abutting R1, while RM corresponded to a 13 bp region overlapping the 5′ end of R1 and the 3′ of R2. […]"}},
  "note": "“Also recorded” adds a separate entry of the source.",
  "data": [
    {"molecule": "C[C@H]1CCC/C=C/[C@@H]2C[C@H](O)C[C@H]2[C@H](O)/C=C/C(=O)O1", "note": "[Brefeldin A]", "values": [
      {"measurement": "morphology of furin containing compartments", "setting": "[1]", "value": "tubulate extensively"}
    ]},
    {"molecule": "O=C(N/N=C/c1ccc(O)c(O)c1)c1cc2ccccc2cc1O", "note": "[Dynasore]", "values": [
      {"measurement": "average pH of early endosomes after wash out", "setting": "[2]; Dynasore washed out", "value": "completely restored"},
      {"measurement": "early endosome morphology and dynamics", "setting": "[2]; presence of 160 μM dynasore", "value": "extensive tubulation of the early endosomes as well as their arrested dynamics"}
    ]},
    {"molecule": "O=C1OC2(c3cc(F)c(O)cc3Oc3cc(O)c(F)cc32)c2ccccc21", "note": "[Oregon green 488]", "values": [
      {"measurement": "pKa", "setting": "[3]", "value": 4.7},
      {"measurement": "Working regime", "setting": "[3]", "value": "4.0-5.0"}
    ]},
    {"molecule": "Fluorescein (FITC)", "values": [
      {"measurement": "Working regime", "setting": "[3]", "value": "5-8"}
    ]},
    {"molecule": "B1", "values": [
      {"measurement": "relative binding constant", "setting": "35 bp dsDNA tag, d(AT)4; 25 pmoles immobilized dsDNA, 200 nM scFv, competitor I^comp 10 nM to 1 μM", "value": "about 1.25×10^7 M^−1"},
      {"measurement": "Kd", "setting": "35 bp dsDNA tag, d(AT)4; 35 bp DNA duplex / d(AT)4", "value": 80, "unit": "nM"},
      {"measurement": "DNA epitope specificity by ELISA", "setting": "[4]", "value": "binding to R1 and no other region; also recorded: binds a DNA sequence ATATATAT"}
    ]}
  ]
}
